Measured values from patent US8309546B2, “Morpholinopurine derivatives” (Daiichi Sankyo Company, Limited, priority 2008, dated 2012).

Legend:
[1] = system: human colon cancer cell strain HT29; experiment: Cell growth inhibition test (MTT), HT29; type: cell-based; details: HT-29, 72 h, HT29, 3 days culture, read-out: concentration exhibiting anti-cell effect (GI50)
Method in brief: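 Each cell strain is exposed to serially diluted compound for 3 days (37° C, 5% CO2), added one day after seeding at 5000 (AN3CA, HT29) or 1000 (IGROV1) cells/well. Living cells are quantified by MTT reduction over 4 h, absorbance at 540 nm, giving GI50 at 50% growth rate.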

[2] = system: human endometrial cancer cell strain AN3CA tumor; experiment: Anti-tumor effect assay using mouse subcutaneous transplantation model; type: in vivo, female nude mouse; details: AN3-CA, oral, tumor weight vs negative control, read-out: Anti-tumor effect (tumor growth inhibition rate); for inhibition in vivo at 5 mg/kg/day / inhibition in vivo at 10 mg/kg/day / inhibition in vivo at 2.5 mg/kg/day: 8 or 5 consecutive days depending on compound
Method: A tumor section was prepared from a human endometrial cancer cell strain AN3CA tumor mass formed in a female nude mouse as a subcutaneously transplanted tumor and then a xenograft model was prepared by transplanting the tumor section into female nude mouse. Tumor-bearing mice having an estimated tumor volume (long diameter×short diameter×short diameter/2) of 80 to 200 mm^3 were divided, so that there should be no significant difference in the mean estimated tumor volume and body weight as compared with the negative control group to perform a test. The test compound was orally administered at a predetermined dose for 8 consecutive days. On the following day of the final administration day, tumor-bearing mice were anesthetized and exsanguinated to death and a tumor mass was isolated to measure tumor weight (the compounds of Examples 1, 3, 6, 8, 11, 12, and 14). Furthermore, as a similar test, the test compound was orally administered for 5 consecutive days, animals were sacrificed on the final administration day, and tumor weight was measured (the compounds of Examples 60, 63, 75, 77, 79, 89, 92, 107, 108, 109, 110, and 127).
In all the tests, anti-tumor effect was calculated by the following formula. {1−(tumor weight in compound treatment group/tumor weight in negative control group)}×100

PI3Kα = PI3Kα (Homo sapiens, UniProt P42336); experiment: PI3K kinase activity inhibition assay; type: biochemical; details: Kinase-Glo Plus ATP detection, read-out: IC50 against PI3K
Method in brief: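 PI3Kα (50 nM solution) was reacted with 30 μM ATP and 45 μM PIP2 solutions, each in HEPES pH 7.4 with MgCl2 and DTT, for 2 h at room temperature. Remaining ATP was measured by Kinase-Glo Plus luminescence, and inhibition was derived from ATP consumed. IC50 was taken from curve fitting of the serial dilutions.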

Sequence of PI3Kα (P42336 whole entry, species assumed): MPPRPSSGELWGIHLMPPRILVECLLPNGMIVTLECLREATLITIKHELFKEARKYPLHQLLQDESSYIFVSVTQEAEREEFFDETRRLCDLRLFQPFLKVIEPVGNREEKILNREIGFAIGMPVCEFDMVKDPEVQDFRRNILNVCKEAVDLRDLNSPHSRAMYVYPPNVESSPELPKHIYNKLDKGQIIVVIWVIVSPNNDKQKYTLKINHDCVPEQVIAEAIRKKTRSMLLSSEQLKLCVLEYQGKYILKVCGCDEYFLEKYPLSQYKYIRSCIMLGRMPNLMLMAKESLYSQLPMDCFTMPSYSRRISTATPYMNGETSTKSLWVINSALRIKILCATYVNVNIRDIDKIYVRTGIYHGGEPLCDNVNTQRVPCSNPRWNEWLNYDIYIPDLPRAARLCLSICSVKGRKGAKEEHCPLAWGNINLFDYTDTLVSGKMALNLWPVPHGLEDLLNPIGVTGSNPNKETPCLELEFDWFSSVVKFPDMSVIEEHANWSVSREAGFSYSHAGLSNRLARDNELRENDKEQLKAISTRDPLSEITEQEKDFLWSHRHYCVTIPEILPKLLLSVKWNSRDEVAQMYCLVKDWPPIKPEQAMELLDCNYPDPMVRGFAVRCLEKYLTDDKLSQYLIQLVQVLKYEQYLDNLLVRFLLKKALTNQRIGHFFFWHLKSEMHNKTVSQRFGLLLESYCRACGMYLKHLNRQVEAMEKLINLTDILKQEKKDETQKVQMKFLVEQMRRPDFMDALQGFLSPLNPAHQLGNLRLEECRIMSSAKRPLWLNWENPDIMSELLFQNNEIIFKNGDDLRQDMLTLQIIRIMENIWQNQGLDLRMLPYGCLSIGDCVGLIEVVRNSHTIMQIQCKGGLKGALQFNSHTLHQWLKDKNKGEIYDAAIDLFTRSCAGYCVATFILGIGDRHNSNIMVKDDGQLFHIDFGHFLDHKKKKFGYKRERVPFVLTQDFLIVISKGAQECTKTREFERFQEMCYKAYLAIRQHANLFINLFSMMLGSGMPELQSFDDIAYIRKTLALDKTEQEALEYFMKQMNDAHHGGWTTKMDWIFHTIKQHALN
Sequence of PI3Kα (P27986 whole entry partner, species assumed): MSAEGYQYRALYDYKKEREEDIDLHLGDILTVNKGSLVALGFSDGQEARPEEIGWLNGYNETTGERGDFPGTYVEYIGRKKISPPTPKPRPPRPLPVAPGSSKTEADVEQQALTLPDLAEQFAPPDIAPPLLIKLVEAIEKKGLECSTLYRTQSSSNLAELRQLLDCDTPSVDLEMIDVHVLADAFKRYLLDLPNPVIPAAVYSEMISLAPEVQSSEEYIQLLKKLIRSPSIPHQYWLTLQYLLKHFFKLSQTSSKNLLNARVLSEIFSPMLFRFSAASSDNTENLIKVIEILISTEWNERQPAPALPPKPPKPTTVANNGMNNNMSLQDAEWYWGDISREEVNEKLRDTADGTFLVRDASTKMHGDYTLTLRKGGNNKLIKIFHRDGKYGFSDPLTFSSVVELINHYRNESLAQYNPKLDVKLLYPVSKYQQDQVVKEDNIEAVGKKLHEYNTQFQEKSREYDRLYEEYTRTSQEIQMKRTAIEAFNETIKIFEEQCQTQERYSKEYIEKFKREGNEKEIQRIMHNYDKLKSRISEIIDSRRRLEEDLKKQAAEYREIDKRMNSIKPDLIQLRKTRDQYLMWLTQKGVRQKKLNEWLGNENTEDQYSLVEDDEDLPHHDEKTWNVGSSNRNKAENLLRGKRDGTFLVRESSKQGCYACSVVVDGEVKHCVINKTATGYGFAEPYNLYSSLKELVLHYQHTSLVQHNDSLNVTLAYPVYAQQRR

## CC(C)Cn1c(N2CCN(S(C)(=O)=O)CC2)nc2c(N3CCOCC3)nc(-c3cnc(N)nc3)nc21 [Example 1, 5-{9-Isobutyl-8-[4-(methylsulfonyl)piperazin-1-yl]-6-morpholin-4-yl-9H-purin-2-yl}pyrimidin-2-amine]
[1]
  GI50: ≤ 5000 nM
[2]
  inhibition in vivo at 5 mg/kg/day: 79%
  inhibition in vivo at 10 mg/kg/day: 92%
PI3Kα
  IC50: 10 to 20 nM

## CC(=O)N1CCN(c2nc3c(N4CCOCC4)nc(-c4cnc(N)nc4)nc3n2CC(C)C)CC1 [Example 2, 5-[8-(4-Acetylpiperazin-1-yl)-9-isobutyl-6-morpholin-4-yl-9H-purin-2-yl]pyrimidin-2-amine]
[1]
  GI50: ≤ 5000 nM
[2]
  inhibition in vivo at 5 mg/kg/day: 44%
  inhibition in vivo at 10 mg/kg/day: 70%
PI3Kα
  IC50: 10 to 20 nM

## CS(=O)(=O)N1CCN(c2nc3c(N4CCOCC4)nc(-c4cnc(N)nc4)nc3n2CC2CC2)CC1 [Example 3, 5-{9-(Cyclopropylmethyl)-8-[4-(methylsulfonyl)piperazin-1-yl]-6-morpholin-4-yl-9H-purin-2-yl}pyrimidin-2-amine]
[1]
  GI50: ≤ 5000 nM
[2]
  inhibition in vivo at 5 mg/kg/day: 75%
  inhibition in vivo at 10 mg/kg/day: 86%
PI3Kα
  IC50: < 10 nM

## Cc1nc(N)ncc1-c1nc(N2CCOCC2)c2nc(N3CCN(S(C)(=O)=O)CC3)n(CC3CC3)c2n1 [Example 6, 5-{9-(Cyclopropylmethyl)-8-[4-(methylsulfonyl)piperazin-1-yl]-6-morpholin-4-yl-9H-purin-2-yl}-4-methylpyrimidin-2-amine]
[1]
  GI50: ≤ 5000 nM
[2]
  inhibition in vivo at 5 mg/kg/day: 66%
  inhibition in vivo at 10 mg/kg/day: 69%
PI3Kα
  IC50: < 10 nM

## CS(=O)(=O)N1CCN(c2nc3c(N4CCOCC4)nc(-c4cnc(N)nc4)nc3n2CC(F)(F)F)CC1 [Example 8, 5-{8-[4-(Methylsulfonyl)piperazin-1-yl]-6-morpholin-4-yl-9-(2,2,2-trifluoroethyl)-9H-purin-2-yl}pyrimidin-2-amine]
[1]
  GI50: ≤ 5000 nM
[2]
  inhibition in vivo at 2.5 mg/kg/day: 72%
  inhibition in vivo at 5 mg/kg/day: 93%
PI3Kα
  IC50: < 10 nM

## CC(=O)N1CCN(c2nc3c(N4CCOCC4)nc(-c4cnc(N)nc4)nc3n2CC2CC2)CC1 [Example 10, 5-[8-(4-Acetylpiperazin-1-yl)-9-(cyclopropylmethyl)-6-morpholin-4-yl-9H-purin-2-yl]pyrimidin-2-amine]
[1]
  GI50: ≤ 5000 nM
[2]
  inhibition in vivo at 10 mg/kg/day: 39%
[2]; 20 mg/kg/day, consecutive days
  inhibition in vivo at 20 mg/kg/day: 73%
PI3Kα
  IC50: < 10 nM

## CNc1ncc(-c2nc(N3CCOCC3)c3nc(N4CCN(S(C)(=O)=O)CC4)n(CC(F)(F)F)c3n2)cn1 [Example 11, N-Methyl-5-{8-[4-(methylsulfonyl)piperazin-1-yl]-6-morpholin-4-yl-9-(2,2,2-trifluoroethyl)-9H-purin-2-yl}pyrimidin-2-amine]
[1]
  GI50: ≤ 5000 nM
[2]
  inhibition in vivo at 2.5 mg/kg/day: 68%
  inhibition in vivo at 5 mg/kg/day: 85%
PI3Kα
  IC50: 10 to 20 nM

## C[C@@H]1CN(c2nc3c(N4CCOCC4)nc(-c4cnc(N)nc4)nc3n2CC(F)(F)F)C[C@H](C)N1 [Example 14, 5-[8-(cis-3,5-Dimethylpiperazin-1-yl)-6-morpholin-4-yl-9-(2,2,2-trifluoroethyl)-9H-purin-2-yl]pyrimidin-2-amine]
[1]
  GI50: ≤ 5000 nM
[2]
  inhibition in vivo at 5 mg/kg/day: 64%
  inhibition in vivo at 10 mg/kg/day: 82%
PI3Kα
  IC50: < 10 nM

## C[C@H]1CN(c2nc3c(N4CCOCC4)nc(-c4cnc(N)nc4)nc3n2CC(F)(F)F)CCN1C=O [Example 111, (2S)-4-[2-(2-Aminopyrimidin-5-yl)-6-morpholin-4-yl-9-(2,2,2-trifluoroethyl)-9H-purin-8-yl]-2-methylpiperazine-1-carboaldehyde]
[1]
  GI50: ≤ 5000 nM
PI3Kα
  IC50: < 10 nM

## C[C@@H]1CN(c2nc3c(N4CCOCC4)nc(-c4cnc(N)nc4)nc3n2CC(F)(F)F)CCN1C=O [Example 112, (2R)-4-[2-(2-Aminopyrimidin-5-yl)-6-morpholin-4-yl-9-(2,2,2-trifluoroethyl)-9H-purin-8-yl]-2-methylpiperazine-1-carboaldehyde]
[1]
  GI50: ≤ 5000 nM
PI3Kα
  IC50: < 10 nM

## C[C@@H](O)C(=O)N1CCN(c2nc3c(N4CCOCC4)nc(-c4cnc(N)nc4)nc3n2CC2CC2)C[C@@H]1C [Example 113, (2R)-1-{(2S)-4-[2-(2-Aminopyrimidin-5-yl)-9-(cyclopropylmethyl)-6-morpholin-4-yl-9H-purin-8-yl]-2-methylpiperazin-1-yl}-1-oxopropan-2-ol]
[1]
  GI50: ≤ 5000 nM
PI3Kα
  IC50: 10 to 20 nM

## C[C@@H]1CN(c2nc3c(N4CCOCC4)nc(-c4cnc(N)nc4)nc3n2CC2CC2)CCN1C(=O)[C@@H](C)O [Example 114, (2R)-1-{(2R)-4-[2-(2-Aminopyrimidin-5-yl)-9-(cyclopropylmethyl)-6-morpholin-4-yl-9H-purin-8-yl]-2-methylpiperazin-1-yl}-1-oxopropan-2-ol]
[1]
  GI50: ≤ 5000 nM
PI3Kα
  IC50: < 10 nM

## CC(=O)N1[C@H](C)CN(c2nc3c(N4CCOCC4)nc(-c4cnc(N)nc4)nc3n2CC(F)(F)F)C[C@@H]1C [Example 115, 5-[8-(4-Acetyl-cis-3,5-dimethylpiperazin-1-yl)-6-morpholin-4-yl-9-(2,2,2-trifluoroethyl)-9H-purin-2-yl]pyrimidin-2-amine]
[1]
  GI50: ≤ 5000 nM
PI3Kα
  IC50: < 10 nM

## C[C@@H]1CN(c2nc3c(N4CCOCC4)nc(-c4cnc(N)nc4)nc3n2CC(F)(F)F)C[C@H](C)N1C=O [Example 116, 4-[2-(2-Aminopyrimidin-5-yl)-6-morpholin-4-yl-9-(2,2,2-trifluoroethyl)-9H-purin-8-yl]-cis-2,6-dimethylpiperazine-1-carboaldehyde]
[1]
  GI50: ≤ 5000 nM
PI3Kα
  IC50: < 10 nM

## CCC(=O)N1CCN(c2nc3c(N4CCOCC4)nc(-c4cnc(N)nc4)nc3n2CC(F)(F)F)CC1 [Example 117, 5-[6-Morpholin-4-yl-8-(4-propionylpiperazin-1-yl)-9-(2,2,2-trifluoroethyl)-9H-purin-2-yl]pyrimidin-2-amine]
[1]
  GI50: ≤ 5000 nM
PI3Kα
  IC50: < 10 nM

## CC(=O)N1CCN(c2nc3c(N4CCOCC4)nc(-c4cnc(N)nc4)nc3n2CC(F)(F)F)CC12CC2 [Example 119, 5-[8-(4-Acetyl-4,7-diazaspiro[2.5]oct-7-yl)-6-morpholin-4-yl-9-(2,2,2-trifluoroethyl)-9H-purin-2-yl]pyrimidin-2-amine]
[1]
  GI50: ≤ 5000 nM
PI3Kα
  IC50: < 10 nM

## CC(=O)N1CCN(c2nc3c(N4CCOC[C@@H]4C)nc(-c4cnc(N)nc4C)nc3n2CC2CC2)CC1 [Example 128, 5-{8-(4-acetylpiperazin-1-yl)-9-(cyclopropylmethyl)-6-[(3S)-3-methylmorpholin-4-yl]-9H-purin-2-yl}-4-methylpyrimidin-2-amine]
[1]
  GI50: ≤ 5000 nM
PI3Kα
  IC50: 10 to 20 nM

## CC(=O)N1CCN(c2nc3c(N4CCOC[C@@H]4C)nc(-c4cnc(N)nc4)nc3n2CC(C)C)CC1 [Example 129, 5-{8-(4-Acetylpiperazin-1-yl)-9-isobutyl-6-[(3S)-3-methylmorpholin-4-yl]-9H-purin-2-yl}pyrimidin-2-amine]
[1]
  GI50: ≤ 5000 nM
PI3Kα
  IC50: 10 to 20 nM

## CC(C)Cn1c(N2CCN(C(=O)CO)CC2)nc2c(N3CCOC[C@@H]3C)nc(-c3cnc(N)nc3)nc21 [Example 130, 2-(4-{2-(2-Aminopyrimidin-5-yl)-9-isobutyl-6-[(3S)-3-methylmorpholin-4-yl]-9H-purin-8-yl}piperazin-1-yl)-2-oxoethanol]
[1]
  GI50: ≤ 5000 nM
PI3Kα
  IC50: 10 to 20 nM

## CC(C)Cn1c(N2CCN(C(=O)[C@H](C)O)CC2)nc2c(N3CCOC[C@@H]3C)nc(-c3cnc(N)nc3)nc21 [Example 131, (2S)-1-(4-{2-(2-Aminopyrimidin-5-yl)-9-isobutyl-6-[(3S)-3-methylmorpholin-4-yl]-9H-purin-8-yl}piperazin-1-yl)-1-oxopropan-2-ol]
[1]
  GI50: ≤ 5000 nM
PI3Kα
  IC50: 10 to 20 nM

## CC(C)Cn1c(N2CCN(C=O)CC2)nc2c(N3CCOC[C@@H]3C)nc(-c3cnc(N)nc3)nc21 [Example 132, 4-{2-(2-Aminopyrimidin-5-yl)-9-isobutyl-6-[(3S)-3-methylmorpholin-4-yl]-9H-purin-8-yl}piperazine-1-carboaldehyde]
[1]
  GI50: ≤ 5000 nM
PI3Kα
  IC50: < 10 nM

## CNc1ncc(-c2nc(N3CCOCC3)c3nc(N4CCN(C(C)=O)CC4)n(CC(F)(F)F)c3n2)cn1 [Example 134, 5-[8-(4-Acetylpiperazin-1-yl)-6-morpholin-4-yl-9-(2,2,2-trifluoroethyl)-9H-purin-2-yl]-N-methylpyrimidin-2-amine]
[1]
  GI50: ≤ 5000 nM
PI3Kα
  IC50: < 10 nM
